{
  "source": "patent US10555919B2",
  "about": "“Melatonin in autoimmune disease” (The Brigham and Women's Hopsital, Inc., priority 2014, dated 2020)",
  "key": {"[1]": {"test_system": "Tr1 cells", "assay": "In vitro mouse Tr1 cell differentiation", "assay_type": "cell-based", "details": "agomelatine 20 ng/ml, CGP 52608 20 ng/ml", "protocol": "(§1) Naive CD4+ T cells (CD4+CD44loCD62LhiCD25−) were from the spleen and lymph node of C57BL/6 wild-type, MTNR1A−, NFIL3−, REV-ERBα, C/EBPα-deficient or RORα-deficient mice using magnetic beads (CD4+ T cell isolation kit, Miltenyi Biotec). All experiments were started between 7 and 9 am. Cells were activated with plate-bound anti-CD3 (2 μg/ml; 14-0031-86; eBioscience) and anti-CD28 (2 μg/ml; 16-0281-86; eBioscience). Mouse IL-27 (30 ng/ml; 34-8271; Biolegend) was added for the generation of Tr1 cells. IL-6 (30 ng/ml; 406-ML-025; R&D Systems), TGF-β1 (15 ng/ml; 130-095-067; Miltenyi Biotec), anti-IL-4 (2.5 μg/ml; C17.8; Biolegend) and anti-IFN-γ (5 μg/ml; XMG1.2; Biolegend) were added for the generation of Th17 cells. Recombinant mouse IL-23 (30 ng/ml; 1887-ML-010; R&D Systems) was added at day 2. For some experiments IL-6 and […] (10 ng/ml; 401-ML-025; R&D Systems) or TGF-β1 and IL-21 (100 ng/ml; 594-ML-010; R&D Systems) were used in instead for Th17 cell differentiation. IL-12 (30 ng/ml; 419-ML-010; R&D Systems) and anti-IL-4 (2.5 μg/ml; C17.8; Biolegend) were used for the generation of Th1 cells. IL-4 (30 ng/ml; 404-ML-010; R&D Systems) and anti-IFN-γ (5 μg/ml; XMG1.2; Biolegend) was added for the generation of Th2 cells. TGF-β1 (15 ng/ml; 130-095-067; Miltenyi Biotec) was used for the generation of Foxp3+ Tregs. Melatonin (Gador, Argentina), Agomelatin, and CGP-52608 (Sigma-Aldrich) were added at the start of the cultures and at day 2, at a final concentration of 2-20 ng/ml."}, "[2]": {"test_system": "murine Th17 cell differentiation", "assay": "In vitro mouse Th17 cell differentiation", "assay_type": "cell-based", "details": "for differentiation of Th17 cells (rorc, IL-17, IL-23 receptor): wild type, melatonin 2 ng/ml, agomelatine 20 ng/ml, ramelteon 10 ng/ml, CGP 52608 20 ng/ml", "protocol": "For intracellular cytokine staining, cells were stimulated for 4 h at 37° C. with phorbol 12-myristate 13-acetate (50 ng/ml; Sigma), ionomycin (1 μg/ml; Sigma) and monensin (GolgiStop; 1 μg/ml; BD Biosciences). After being stained for surface markers, cells were fixed and made permeable according to the manufacturer's instructions (BD Biosciences). All antibodies against cytokines were from Biolegend. All experiments were started at the same time (8-9 am). Data were collected with a LSR II or FACSAria (BD Biosciences), then were analyzed with FlowJo software (Treestar).\nas §1\n(§2) Secreted cytokines were measured in tissue culture supernatants after 72-96 hs by enzyme-linked immunosorbent assay as previously described (Farez et al., 2009)."}, "[3]": {"target": "T1, MT2 melatonin receptor (Homo sapiens, UniProt P49286)", "T1 sequence (P49286 1-362)": "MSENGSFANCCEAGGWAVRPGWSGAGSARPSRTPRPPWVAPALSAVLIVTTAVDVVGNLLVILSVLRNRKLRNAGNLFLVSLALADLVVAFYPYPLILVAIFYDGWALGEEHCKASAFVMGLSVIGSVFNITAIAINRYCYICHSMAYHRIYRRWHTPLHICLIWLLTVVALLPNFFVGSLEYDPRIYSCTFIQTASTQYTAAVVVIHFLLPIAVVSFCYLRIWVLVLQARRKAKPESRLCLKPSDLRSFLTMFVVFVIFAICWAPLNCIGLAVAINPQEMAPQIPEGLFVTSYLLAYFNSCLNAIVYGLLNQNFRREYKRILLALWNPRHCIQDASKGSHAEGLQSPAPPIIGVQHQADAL", "details": "nonselective ligand; cited from earlier work"}, "[4]": {"test_system": "human CD4+ T cells activated under Tr1 polarizing conditions", "assay": "In vitro human Tr1 differentiation", "assay_type": "cell-based", "details": "500 ng/ml", "excerpt": "We then studied the effects of melatonin on human CD4^+ T cells. In addition, we also analyzed the effects of agomelatine, which activates melatonin-dependent signaling (Hickie and Rogers, 2011). Based on the effects of melatonin administration on T cells during EAE, we focused our studies on human Th17 and Tr1 cells. Melatonin and agomelatine reduced the production of IL-17, RORC and IL17A expression by human CD4^+ T cells activated under Th17 polarizing conditions (FIGS. 3a-c and FIG. 8), no effect was detected on the differentiation of human Th1 cells (FIGS. 3d-f). Concomitantly, melatonin and agomelatine increased IL10 expression."}, "[5]": {"test_system": "nr1d1 reporter-transfected HEK293 cells", "assay": "nr1d1 promoter luciferase reporter assay", "assay_type": "cell-based", "details": "nr1d1 promoter controls luciferase expression", "excerpt": "The IL-10 promoter reporter and C-Maf and AhR vectors were previously described (Apetoh et al., 2010), vector expressing ROR-α were purchased from PlasmID at Harvard Medical School. Vectors coding for C/EBPα (44627) and Bmal reporter (46824) were purchased from Addgene. The retrovirus used for nfil3 overexpression in T cells was graciously provided by Laura Hooper (UT Southwestern, TX, USA). The retrovirus used for nr1d1 overexpression in T cells was graciously provided by Bart Staels (Institut Pasteur, Lille, France, […]). The nr1d1 promoter reporter was graciously provide by Vincent Laudent (Ecole Normale Supérieure, Lyon, France).\nHEK293 cells were grown in DMEM supplemented with 10% FBS and were transfected with FuGENE HD transfection reagent and 2 μg of each plasmids according the manufacturer's instructions (Roche). Firefly and renilla luciferase activity was analyzed 48 h after transfection and 24 h after treatment with a Dual Luciferase Assay kit (Promega)."}, "[6]": {"test_system": "human Th1 cells", "assay": "In vitro human Th1 differentiation", "assay_type": "cell-based", "details": "500 ng/ml; IL-12", "protocol": "(§3) In vitro human T cell differentiation. For Th17 differentiation, naive CD45RA+ CD4+ T cells were isolated from PBMCs with magnetic beads (Naive Human CD4+ T Cell Isolation Kit II, Miltenyi Biotec) and seeded at a density of 5×10^5 cells/ml in 24-well plates coated with anti-CD3 and (2 μg/ml) and soluble anti-CD28 and cultured in the presence of the following cytokines IL-1β (25 ng/ml), IL-6 (50 ng/ml), and TGF-β1 (2 ng/ml) and neutralizing antibodies to IFN-g ([…]) and IL-4 (10 microgram/ml). Alternatively, Th17 cells were differentiated by using IL-1β (25 ng/ml), IL-6 (50 ng/ml), and IL-23 (50 ng/ml) and neutralizing antibodies to IFN-g ([…]) and IL-4 (10 microgram/ml). For Th1 differentiation naïve CD4+T cells are cultured in the presence of IL-12 (20 ng/ml) and anti-IL-4 (10 μg/ml)."}, "[7]": {"test_system": "human CD4+ T cells activated under Th17 polarizing conditions", "assay": "In vitro human Th17 differentiation", "assay_type": "cell-based", "details": "500 ng/ml", "protocol": "as §3, §2"}},
  "data": [
    {"smiles": "C=CCN1C(=O)CS/C1=N/NC(=S)NC", "note": "[CGP 52608]", "values": [
      {"measurement": "Tr1 cell differentiation", "setting": "[1]", "result": "boosted"},
      {"measurement": "differentiation of Th17 cells (rorc, IL-17, IL-23 receptor)", "setting": "[2]", "result": "boosted"}
    ]},
    {"smiles": "CC(=O)NCCc1c(Cc2ccccc2)[nH]c2ccccc12", "note": "[Luzindole, N-[2-(2-benzyl-1H-indol-3-yl)ethyl]acetamide]", "values": [
      {"measurement": "higher affinity for the MT2 melatonin receptor", "setting": "[3]", "result": "15- to 25 fold"}
    ]},
    {"smiles": "CCOC(=O)N1CCC(CN(Cc2ccc(Cl)cc2)Cc2ccc([N+](=O)[O-])s2)C1", "note": "(stereo not drawn) [SR9009]", "values": [
      {"measurement": "differentiation into Th17 cells (RT-PCR)", "setting": "[2]; SR9009 5 micromolar, 72 hr", "result": "suppresses"}
    ]},
    {"smiles": "COc1ccc2cccc(CCNC(C)=O)c2c1", "note": "[agomelatine, N-[2-(7-methoxynaphthalen-1-yl)ethyl]acetamide]", "values": [
      {"measurement": "IL-10 production", "setting": "[4]", "result": "increased"},
      {"measurement": "luciferase activity", "setting": "[5]", "result": "decreased"},
      {"measurement": "differentiation of human Th1 cells", "setting": "[6]", "result": "no effect"},
      {"measurement": "production of IL-17, RORC and IL17A expression", "setting": "[7]", "result": "reduced"},
      {"measurement": "IL10 expression", "setting": "[7]; Th17 polarizing conditions", "result": "increased"},
      {"measurement": "Tr1 cell differentiation", "setting": "[1]", "result": "boosted"},
      {"measurement": "differentiation of Th17 cells (rorc, IL-17, IL-23 receptor)", "setting": "[2]", "result": "suppressed"}
    ]},
    {"smiles": "CCC(=O)NCC[C@@H]1CCc2ccc3c(c21)CCO3", "note": "[ramelteon, (S)—N-[2-(1,6,7,8-tetrahydro-2H-indeno[5,4-b]furan-8-yl)ethyl]propionamide]", "values": [
      {"measurement": "differentiation of Th17 cells (rorc, IL-17, IL-23 receptor)", "setting": "[2]", "result": "suppressed"}
    ]}
  ]
}
